System: rats
Test: Action against extinction of a practice of active avoiding a negative reinforcement (conditional avoidance response, deWeid apparatus)
Assay type: in vivo
Details: subcutaneous, phosphate-zinc complex, percent relative to conditional responses in first extinction test before treatment; for % of conditional response in course of extinction period after 2 hours: 2 hours after injection, untreated control 60; for % of conditional response in course of extinction period after 4 hours: 4 hours after injection, untreated control 30
Description: The action against extinction of a practice of active avoiding a negative reinforcement was determined using an apparatus described by deWeid (Proc. Soc. Ex. Biol. Med.,) Vol. 122 ([…]) p. 28). The practice is effected in a box equipped with a 60 W lamp (conditional stimulus: CS), a mat and an electrifiable floor connected to an electric stimulus which permits the delivery of a painful shock of 75 volts (unconditional stimulus US). The conditional stimulus is present only for 5 seconds, then is associated with an unconditional stimulus just as the animal grips the mat realizing as well the avoidance response desired. The conditional response is acquired when the animal responds to the conditional stimulus.
10 tests at 60 second intervals were effected daily for 3 days and examination of the extinction of the practice realized with suppression of the unconditional stimulus is followed on the 4th day with 3 tests at 2 hour intervals with the animals presenting at least 7 conditional responses.
The compounds were injected subcutaneously as a phosphate-zinc complex before the first test of extinction of practice to group of 5 rats and the results were compared with an untreated control group of rats. The evolution of the conditional response in the course of the period of extinction of practice 2 and 4 hours after the injection of the compound is expressed as the percent of variation with respect to the number of conditional responses observed in the first test of extinction before treatment.

Row | Substance | % of conditional response in course of extinction period after 2 hours (dose 1 μg/rat) [%] | % of conditional response in course of extinction period after 4 hours (dose 1 μg/rat) [%] | % of conditional response in course of extinction period after 2 hours (dose 10 μg/rat) [%] | % of conditional response in course of extinction period after 4 hours (dose 10 μg/rat) [%]
1 | Acetate of cyclic disulfide (1→6) of N-[cysteinylalanylalanylphenylalanyl-D-lysyl]-cysteine [Example 1] | 51 | 49 | 76 | 71
2 | Cyclic disulfide (1→4) of N-[cysteinylglutamylhistidylcysteinyl-D-lysyl]-phenylalanine [Example 3] | 75 | 29 | 70 | 50
3 | Acetate of cyclic disulide (1→4) of N-[Cysteinylalanylanylcysteinyl-D-lysyl]-phenylalanine [Example 2] | 59 | 35 | 71 | 75
